The numbers were not newly measured in publication PMC7832358, “Trending Topics on Coumarin and Its Derivatives in 2020” (Molecules, 2021), which cites them from elsewhere.

pIC50: −log10 of the molar value.

For data set [1], the system named is Ebolavirus (EBOV). Conditions: read-out: IC50 against EBOV.
For data set [2], the system named is Marburg virus (MARV). The conditions noted are these: read-out: IC50 against MARV.
In data set [3] the target is xanthine oxidase. Set-up: method as in PMID 32574739. Conditions: read-out: xanthine oxidase inhibition IC50.
The subject of data set [4] is B16F10 cells. Further details: method as in PMID 32574739.
Details of data set [5]: method as in PMID 31887477. Conditions: inhibitor of thioredoxin reductases (TrxRs); read-out: antitumor activity IC50.
Data set [6] has as its system streptozotocin (STZ)-induced cognitive dysfunction in rats.
For data set [7] the test system is unchanged. The source holds these as a separate data set.
Data set [8] relates to tyrosinase. Further details: method as in PMID 32652434.
The test system of data set [9] is hMAO-B. Conditions: read-out: hMAO-B inhibition IC50.
The subject of data set [10] is reserpinized mice. Conditions: reserpinized mice pre-treated with levodopa and benserazide.
Data set [11] relates to hA3 receptors. Set-up: method as in PMID 31738058. Conditions: antagonists.

As for `Cc1c(Cc2ccc(OC(F)(F)F)cc2)c(=O)oc2cc(OCC(O)CN3CCC(C(N)=O)CC3)ccc12` (stereo not shown) [compound XVI], the results for the negative-log IC50 (pIC50) in data set [1] and in [2] were 6.30 and 5.92, respectively.

For `COc1ccc(-c2cc3cc([N+](=O)[O-])ccc3oc2=O)cc1` [3-(4-methoxyphenyl)-6-nitrocoumarin], the pIC50 in data set [3] was 5.08. In addition, in data set [4], the “cytotoxicity in B16F10 cells” value is “non-cytotoxic”.

As to `CCN(CC)c1ccc2cc(/C=C/C(=O)c3ccc(OC)c(O)c3)c(=O)oc2c1` [compound V], the pIC50 in data set [5] was 5.44.

`O=c1ccc2ccc(O)cc2o1` [umbelliferone]: the “cognitive deficits in the Morris water maze and object recognition tests” value in data set [6] is listed as “prevent cognitive deficits”. Also, in data set [7], the “activity of hippocampal AChE” value is “reduced”, the “expression of NF-κB inhibitor (IκB-α)” value was “upregulating”, the glutathione content result is “increasing” and the level of malondialdehyde result is on record as “reduced”. In [7], the “level of proinflammatory cytokines” value is listed as “reducing”; the “overexpression of inflammatory markers (nuclear factor κB and cyclooxygenase II)” value is listed as “inhibiting”.

For `O=c1cc(OCc2cn(Cc3cocc(O)c3=O)nn2)c2ccccc2o1` [compound XXVI], the tyrosinase inhibitory activity result in data set [8] is given as “sub-micromolar range”.

Consider `O=c1oc2cc(O)ccc2cc1-c1cc(Br)cs1` [3-(4′-bromothiophen-2′-yl)-7-hydroxycoumarin], for which the pIC50 in data set [9] is 6.85. Besides, the “in vivo profile on locomotor activity (OFT) versus selegiline” value in [10] is listed as “slightly better in vivo profile than selegiline”.

Regarding `COc1c2occc2cc2ccc(=O)oc12` [xanthotoxin], the “cognitive deficits in the Morris water maze and object recognition tests” value in data set [6] is given as “prevent cognitive deficits”. In addition, in data set [7], the “activity of hippocampal AChE” value is “reduced”, the “expression of NF-κB inhibitor (IκB-α)” value is listed as “upregulating”, the glutathione content entry was “increasing” and the level of malondialdehyde entry is given as “reduced”. The “level of proinflammatory cytokines” value in data set [7] is “reducing”.

In the case of `O=c1oc2c(O)cccc2cc1-c1ccc(Br)cc1` [compound XX], the hA3 receptor affinity result in data set [11] is given as “low nanomolar range”.

What is called pIC50 is the negative decadic logarithm of the IC50, by convention in mol/L.
